≈ marks a conversion by molar mass, not a printed value. Read-outs that look alike come from different tables or passages of the source.
Experiments:
[1] = test system: B. cepacia; assay: FIC checkerboard assay; format: cell-based
[2] = test system: Escherichia coli; assay: Broth microdilution MIC (Example 12)
[3] = test system: Pseudomonas aeruginosa; assay: Broth microdilution MIC (Example 12)
[4] = test system: B. cepacia; assay: Broth microdilution MIC (Example 10); conditions: initial MIC testing
[5] = test system: Acinetobacter baumannii; assay: Broth microdilution MIC (Example 12)
[6] = test system: Klebsiella pneumoniae; assay: Broth microdilution MIC (Example 12)
[7] = test system: B. cenocepacia; assay: FIC checkerboard assay; format: cell-based; conditions: during FIC testing
[8] = test system: B. cenocepacia; assay: Broth microdilution MIC (Example 10); conditions: initial MIC testing; B. cenocepacia isolate 0548 (CIP-R)
[9] = test system: P. aeruginosa; assay: FIC checkerboard assay; format: cell-based; conditions: for MICB / FICB: by checkerboard; for MIC: Pseudomonas aeruginosa, Aztreonam alone (checkerboard with BisEDT), read-out: Drug B MIC; for FICB: Colistin in combination with BisEDT
[10] = test system: Burkholderia spp.; assay: organism not typed; format: cell-based
[11] = test system: A. flavus; assay: Broth microdilution antifungal susceptibility (Example 13); format: cell-based
[12] = test system: A. niger; assay: as above; format: cell-based; conditions: A. niger ATCC 29508
[13] = test system: A. fumigatus; assay: as above; format: cell-based
[14] = test system: A. terreus; assay: as above; format: cell-based; conditions: A. terreus MMX 8229
[15] = test system: Haemophilus influenzae; assay: Broth microdilution MIC against Haemophilus influenzae clinical isolates; conditions: for MIC50 / MIC90: Haemophilus influenzae; for MIC: all evaluated H. influenzae strains, incl. BLNAR, range tested 64-0.06
[16] = during FIC testing, B. cepacia isolate 0546

Work on `NCC[C@H](O)C(=O)N[C@@H]1C[C@H](N)[C@@H](O[C@H]2O[C@H](CN)[C@@H](O)[C@H](O)[C@H]2O)[C@H](O)[C@H]1O[C@H]1O[C@H](CO)[C@@H](O)[C@H](N)[C@H]1O` [AMK] yielded an MIC [1, 16] of 64 µg/mL, an MIC ([1]; during FIC testing, B. cepacia isolate 1793) of 32 µg/mL and an MIC ([2]; E. coli ATCC 35218, ESBL) of 1 µg/mL (≈ 1.71 µM). For the same compound, the MIC ([2]; E. coli ATCC 35218, QC organism (Table 102)) was 1 µg/mL (≈ 1.71 µM), the MIC ([2]; E. coli ATCC BAA-2471, NDM) was 64 µg/mL (≈ 109 µM) and the MIC ([2]; E. coli CDC 114, ESBL/KPC) was 1 µg/mL (≈ 1.71 µM). The MIC ([2]; E. coli CDC 118, ESBL/NDM) was >64 µg/mL, the MIC ([2]; E. coli CDC 435, NDM) was >64 µg/mL and the MIC ([2]; E. coli CDC 451, KPC) was 4 µg/mL (≈ 6.83 µM). The MIC ([2]; E. coli CDC 503, ESBL/NDM) was >64 µg/mL, the MIC ([2]; E. coli MMX 5745, KPC) was 0.5 µg/mL (≈ 0.854 µM) and the MIC ([2]; E. coli MMX 5755, ESBL) was 16 µg/mL (≈ 27.3 µM). For the same compound, the MIC ([2]; E. coli MMX 5756, ESBL) was 64 µg/mL (≈ 109 µM), the MIC ([2]; E. coli MMX 5758, ESBL) was 1 µg/mL (≈ 1.71 µM) and the MIC ([3]; P. aeruginosa CDC 230, VIM/OXA) was >64 µg/mL. For the same compound, the MIC ([3]; P. aeruginosa CDC 231, KPC/OXA) was 8 µg/mL (≈ 13.7 µM), the MIC ([3]; P. aeruginosa CDC 241, IMP/OXA) was 32 µg/mL (≈ 54.6 µM) and the MIC ([3]; P. aeruginosa CDC 246, NDM/OXA) was >64 µg/mL. The MIC ([3]; P. aeruginosa CDC 250, NDM/OXA) was >64 µg/mL, the MIC ([3]; P. aeruginosa CDC 356, KPC) was 2 µg/mL (≈ 3.42 µM) and the MIC ([3]; P. aeruginosa CDC 439, IMP) was >64 µg/mL. For the same compound, the MIC ([3]; P. aeruginosa CDC 444, VIM) was >64 µg/mL, the MIC ([3]; P. aeruginosa CDC 457, VIM) was 2 µg/mL (≈ 3.42 µM) and the MIC ([3]; P. aeruginosa CDC 516, KPC/AmpC) was 2 µg/mL (≈ 3.42 µM). It also gave an MIC ([3]; P. aeruginosa CDC 518, KPC/AmpC) of 16 µg/mL (≈ 27.3 µM), an MIC ([4]; B. cepacia isolate 0546) of 64 µg/mL (≈ 109 µM) and an MIC ([4]; B. cepacia isolate 1793) of 64 µg/mL (≈ 109 µM). The MIC ([5]; A. baumannii CDC 273, ESBL/OXA) was >64 µg/mL, the MIC ([5]; A. baumannii CDC 274, ESBL/OXA) was 16 µg/mL (≈ 27.3 µM) and the MIC ([5]; A. baumannii CDC 275, ESBL/OXA) was >64 µg/mL. For the same compound, the MIC ([5]; A. baumannii CDC 277, ESBL/OXA) was 16 µg/mL (≈ 27.3 µM), the MIC ([5]; A. baumannii CDC 284, ESBL/OXA) was 32 µg/mL (≈ 54.6 µM) and the MIC ([5]; A. baumannii CDC 307, OXA) was >64 µg/mL. For the same compound, the MIC ([5]; A. baumannii CDC 308, ESBL/OXA) was >64 µg/mL, the MIC ([5]; A. baumannii CDC 311, OXA) was >64 µg/mL and the MIC ([5]; A. baumannii CDC 312, OXA) was 1 µg/mL (≈ 1.71 µM). The MIC ([5]; A. baumannii CDC 313, ESBL/OXA) was 4 µg/mL (≈ 6.83 µM), the MIC ([5]; A. baumannii NCTC 13304, OXA) was 0.5 µg/mL (≈ 0.854 µM) and the MIC ([6]; K. pneumoniae ATCC BAA-1705, ESBL/KPC) was 16 µg/mL (≈ 27.3 µM). It also gave an MIC ([6]; K. pneumoniae ATCC BAA-1705, QC organism (Table 102)) of 16 µg/mL (≈ 27.3 µM), an MIC ([6]; K. pneumoniae CDC 112, KPC) of 16 µg/mL (≈ 27.3 µM) and an MIC ([6]; K. pneumoniae CDC 113, ESBL/KPC) of 16 µg/mL (≈ 27.3 µM). It also gave an MIC ([6]; K. pneumoniae CDC 115, ESBL/KPC) of 0.5 µg/mL (≈ 0.854 µM), an MIC ([6]; K. pneumoniae CDC 120, ESBL/KPC) of 16 µg/mL (≈ 27.3 µM) and an MIC ([6]; K. pneumoniae CDC 126, ESBL/KPC) of 2 µg/mL (≈ 3.42 µM). For the same compound, the MIC ([6]; K. pneumoniae CDC 129, ESBL/KPC) was 32 µg/mL (≈ 54.6 µM), the MIC ([6]; K. pneumoniae CDC 135, ESBL/VIM) was 16 µg/mL (≈ 27.3 µM) and the MIC ([6]; K. pneumoniae CDC 138, ESBL/NDM) was >64 µg/mL. The MIC ([6]; K. pneumoniae CDC 158, ESBL/NDM/OXA) was 2 µg/mL (≈ 3.42 µM) and the MIC ([6]; K. pneumoniae MMX 9029, ESBL) was 0.5 µg/mL (≈ 0.854 µM).

Work on `C[C@H]1[C@H](NC(=O)/C(=N\OC(C)(C)C(=O)O)c2csc(N)n2)C(=O)N1S(=O)(=O)O` [AZT] yielded an MIC [1, 16] of 32 µg/mL, an MIC ([7]; B. cenocepacia isolate 0813 (CIP-I)) of 32 µg/mL and an MIC [8] of 64 µg/mL (≈ 147 µM).

Compound `C[C@H]1[C@H](NC(=O)/C(=N\OC(C)(C)C(=O)O)c2csc(N)n2)C(=O)N1S(=O)(=O)O` [Aztreonam] has an MIC ([1]; Burkholderia cepacia, B. cepacia 546, Aztreonam alone (checkerboard with BisEDT), read-out: Drug B MIC) of 32 µg/mL, an MIC ([1]; Burkholderia cepacia, B. cepacia 1793, Aztreonam alone (panel with BisEDT), read-out: Drug B MIC) of 128 µg/mL and an MICB ([9]; P. aeruginosa 7745, Aztreonam MIC in combination with BisEDT) of 16 µg/mL. The MICB ([9]; P. aeruginosa 9108, Aztreonam MIC in combination with BisEDT) was 16 µg/mL, the MIC ([9]; P. aeruginosa 6322) was 32 µg/mL and the MIC ([9]; P. aeruginosa 6977) was 64 µg/mL. The MIC ([9]; P. aeruginosa 7745) was 16 µg/mL, the MIC ([9]; P. aeruginosa 8798) was > 256 µg/mL and the MIC ([9]; P. aeruginosa 9108) was 16 µg/mL. For the same compound, the MIC ([10]; read-out: Drug B MIC) was 16 µg/mL (≈ 36.7 µM).

With `OC(Cn1cncn1)(Cn1cncn1)c1ccc(F)cc1F` [FLU] the MIC2 ([11]; A. flavus ATCC 22546) was >64 µg/mL, the MIC2 ([11]; A. flavus ATCC 204304) was >64 µg/mL and the MIC2 ([11]; A. flavus MMX 7935) was >64 µg/mL. The MIC2 [12] was >64 µg/mL, the MIC2 ([13]; A. fumigatus ATCC 204305) was >64 µg/mL and the MIC2 ([13]; A. fumigatus ATCC MYA-3626) was >64 µg/mL. For the same compound, the MIC2 ([13]; A. fumigatus MMX 5934) was >64 µg/mL, the MIC2 ([13]; A. fumigatus MMX 5938) was >64 µg/mL and the MIC2 ([13]; A. fumigatus MMX 5939) was >64 µg/mL. The MIC2 [14] was >64 µg/mL.

`NC[C@H]1O[C@H](O[C@H]2[C@H](O)[C@@H](O[C@H]3O[C@H](CO)[C@@H](O)[C@H](N)[C@H]3O)[C@H](N)C[C@@H]2N)[C@H](N)C[C@@H]1O` [TOB] gave an MIC [1, 16] of 32 µg/mL, an MIC ([7]; B. cenocepacia isolate 0548 (CIP-R)) of 32 µg/mL and an MIC ([4]; B. cepacia isolate 0546) of 64 µg/mL (≈ 137 µM). For the same compound, the MIC ([4]; B. cepacia isolate 1793) was 64 µg/mL (≈ 137 µM), the MIC ([4]; B. cepacia isolate 1794) was 64 µg/mL (≈ 137 µM) and the MIC [8] was 64 µg/mL (≈ 137 µM).

Work on `CC1(C)S[C@@H]2[C@H](NC(=O)[C@H](N)c3ccccc3)C(=O)N2[C@H]1C(=O)O` [ampicillin, Ampicillin] yielded an MIC50 [15] of 2 µg/mL (≈ 5.72 µM) and an MIC90 [15] of 4 µg/mL (≈ 11.4 µM).

Compound `CC[C@H]1OC(=O)[C@H](C)[C@@H](O[C@H]2C[C@@](C)(OC)[C@@H](O)[C@H](C)O2)[C@H](C)[C@@H](O[C@@H]2O[C@H](C)C[C@H](N(C)C)[C@H]2O)[C@](C)(O)C[C@@H](C)CN(C)[C@H](C)[C@@H](O)[C@]1(C)O` [azithromycin, Azithromycin] has an MIC50 [15] of 2 µg/mL (≈ 2.67 µM) and an MIC90 [15] of 2 µg/mL (≈ 2.67 µM).

`CO/N=C(\C(=O)N[C@@H]1C(=O)N2C(C(=O)O)=C(COC(N)=O)CS[C@H]12)c1ccco1` [cefuroxime, Cefuroxime] showed an MIC50 [15] of 4 µg/mL (≈ 9.43 µM) and an MIC90 [15] of 16 µg/mL (≈ 37.7 µM).

Colistin showed an MICB ([9]; P. aeruginosa 6322, Colistin MIC in combination with BisEDT) of 0.5 µg/mL, an FICB ([9]; P. aeruginosa 6322) of 1 and an MICB ([9]; P. aeruginosa 6977, Colistin MIC in combination with BisEDT) of 1 µg/mL. It also gave an FICB ([9]; P. aeruginosa 6977) of 1, an MICB ([9]; P. aeruginosa 7745, Colistin MIC in combination with BisEDT) of 0.5 µg/mL and an FICB ([9]; P. aeruginosa 7745) of 1. It also gave an FICB ([10]; B. multivorans 1795, FIC of Colistin in combination with BisEDT, per checkerboard row) of 1.

With “bismuth-1,2-ethanedithiol, 2-mercaptopyridine N-oxide [BisEDT/PYR]” the MIC [15] was < 0.06 µg/mL.

For “bismuth-2,3-butanedithiol, 2-mercaptopyridine N-oxide [BisBDT/PYR]”, the MIC [15] was < 0.06 µg/mL.
